Measurements: patent publication US7371775B2, “7-carboxymethyloxy-3′,4′,5-trimethoxy flavone monohydrate, the preparation method and uses thereof” (Dong-A Pharmaceuticals Co., Ltd, priority 2003, dated 2008)
Read-outs that look alike come from different tables or passages of the source.

Tests used:
[1] = Hygroscopicity test: weight changes at 25° C., 75% relative humidity; type: physicochemical
Protocol: 7-carboxymethyloxy-3′,4′,5-trimethoxy flavone.monohydrate prepared in the above example 1 or example 2 was exactly measured by using a weighing bottle (6 cm in diameter). 1 g of the 7-carboxymethyloxy-3′,4′,5-trimethoxy flavone.monohydrate was prepared as a sample. The sample was kept in a vessel in which temperature was set; at 25° C. and 75% relative humidity was maintained. Weight changes of the sample were measured after 2, 4, and 6 hours and on the first day, on the 3rd day, and on the 6th day. The amount of weight change was calculated as percentage to the starting weight of the sample and the results are shown in Table 1.
Weight changes of 7-carboxymethyloxy-3′,4′,5-trimethoxy flavone.anhydride prepared in the comparative example were also measured by the same method as mentioned above, and the results are shown in Table 1.

[2] = system: TNBS-induced colitis model; assay: Model of inflammatory bowel diseases induced with TNBS (lesion score); type: in vivo, male SD rats
Protocol: The modified method of Shibata et al. (Dig. Endosc. 1993, 5: 13) was used. 7 week-old male SD rats (CRJ) were fasted for a day, and the rats were put under anesthesia and canula (diameter 3 mm) was inserted into the anus to the depth of 8 cm. 25 mg/ml of TNBS (Trinitrobenzene sulfonic acid) dissolved in 50% ethanol solution was injected to each rat and the rats were positioned at feature of tail up for 1 minute. The solution flowing out was removed and the rats were once washed with 1.5 ml of saline solution. After colitis was induced, the compound of the present invention was administered orally or rectally from the next day of inducing to the 6th day. For control medicine, sulfasalazine […] was used for oral administration and prednisolone was used for rectal administration. And for control group, 5% HPMC was administered. On the 7th day of experiment, each group of the rats was put under ether anesthesia for autopsy. The colon was extracted. After 1% formalin solution was injected into the cavity of the extracted colon to inflate, the both ends of it were bonded with each other, which was then fixed in 1% formalin solution for 2 hours. The all-fixed colon was cut to lengthy direction and washed to remove surrounding fat tissues and connective fissaes. Cecum was removed and the weight of the colon and the rectum was measured. The area of ulcer lesion and inflammatory region were measured to mark scores according to the criterion. Then they were fixed in 10% neutral formalin solution, and the tissue examination of lesion site was performed by a general method to mark scores according to criterion.
Clinical symptoms: Daily, clinical symptoms and survival of the animals were observed. The weight of animals was measured at the beginning day, the 3rd day and the 8th day of the experiment.
Observation with naked eye: The number and the width of the ulcer and lesion area formed in the large intestine were measured and recorded. By using modified Wallace's method (Can. J. Physiol. Pharmacol., 1988, 66: 422), lesion examined with the naked eye was scored and the average value of each group was compared. The standard of lesion scores as criterion of the damage of the colon by Wallace's method […] is as follows.
(0: normal, non-damaged, 1: congestion without ulcer, 2: congestion and thickening of intestinal wall without ulcer, 3: an ulcer lesion without thickening of intestinal wall, 4: more than two ulcerous/inflammatory lesion, 5: more than two ulcerous/inflammatory lesion or the length of ulcerous/inflammatory lesion is more than 1 cm, 6-10: when the length of lesion is over 2 cm, one point increases every time 1 cm of the length of ulcerous/inflammatory increases, for example: when the ulcer length is 3 cm, the point is 7)
Pathological tissue examination: The colon was trimmed at 3 cm interval from the rectum to the cecum, including the site of lesion examined with the naked eye, to make at least 4 specimens per an individual. Pathological tissue examination on the specimens was performed and the results were scored by modified method of Moyama (Ann. Clin. Lab. Sci., 1990, 20: 420). And the highest score was regarded as the score of an individual. When the lesion cannot be examined with the naked eye, the other specimen having lesion was trimmed, at 3 cm interval, from another individual.

[3] = Test of conversion of ethanol solvate into monohydrate: weight changes at 25° C., 75% relative humidity; type: physicochemical
Protocol: 7-carboxymethyloxy-3′,4′,5-trimethoxy flavone.monohydrate prepared in the above example 1 or example 2 was measured by using a weighing bottle (6 cm in diameter). 1 g of the 7-carboxymethyloxy-3′,4′,5-trimethoxy flavone.monohydrate was prepared as a sample. The sample was kept in a receptacle in which temperature was set at 25° C. and 75% relative humidity. On the let, 1st, 2nd, 3rd and 6th day, the weight of samples were measured.
Weight changes of 7-carboxymethyloxy-3′,4′,5-trimethoxy flavone.ethanol solvate prepared in the above example 3 were also investigated by the same method as mentioned above, and the results are shown in Table 2.

[4] = system: gastric mucosal damage induced by ethanolic-HCl; assay: Gastric mucosal damaged model induced by ethanolic-HCl (ulcer index); type: in vivo, SD male rats; settings: rats, oral; for ED50: Rattus norvegicus, 1 hour before 150 mM HCl-80% ethanol, ulcer index
Protocol: SD male rats (250-350 g) were fasted for 24 hours. The compound of the present invention was orally administered in suspension of 5% HPMC, and after 1 hour, 1.5 ml of 150 mM HCl-80% ethanol was orally administered. After 1 hour, the rats were sacrificed and the stomachs were extracted to measure ulcer index. The ulcer index was shown by the area (mm^2) of hemorrhage lesion (Mizui, T, et al., Jpn. J. Pharmacol. 1983, 33: 939).
Rebamipide [2-(4-chlorobenzoylamino)-3-(2-(1H)-quinolinone-4-yl)propanonic acid] (Trade Name: Mucosta) was used as a control medicine.

[5] = listed as 7-carboxymethyloxy-3′,4′,5-trimethoxy flavone.monohydrate

| Compound | Weight changes according to the time lapse (%) ([1]; 0 h) | Weight changes according to the time lapse (%) ([1]; 2 h) | Weight changes according to the time lapse (%) ([1]; 4 h) | Weight changes according to the time lapse (%) ([1]; 6 h) | Weight changes according to the time lapse (%) ([1]; 1 day) | Weight changes according to the time lapse (%) ([1]; 3 day) | Weight changes according to the time lapse (%) ([1]; 6 day) | Weight changes according to the time lapse (%) ([3]; 0 day) | Weight changes according to the time lapse (%) ([3]; 1 day) | Weight changes according to the time lapse (%) ([3]; 2 day) | Weight changes according to the time lapse (%) ([3]; 3 day) | Weight changes according to the time lapse (%) ([3]; 6 day) | ED50 [4] [mg/kg] | other results |
| --- | --- | --- | --- | --- | --- | --- | --- | --- | --- | --- | --- | --- | --- | --- |
| COc1ccc(-c2cc(=O)c3c(OC)cc(OCC(=O)O)cc3o2)cc1OC [Anhydride, reference compound] | 0 | +3.4% | +4.7% | +4.7% | +4.6% | +4.5% | +4.6% | – | – | – | – | – | – | Weight changes according to the time lapse (%) ([1]; 2 h, listed as 7-carboxymethyloxy-3′,4′,5-trimethoxy flavone.anhydride): 3.4%; weight increase (average) ([1]; from the 4th hour): 4.6% |
| C[C@]12C=CC(=O)C=C1CC[C@@H]1[C@@H]2[C@@H](O)C[C@@]2(C)[C@H]1CC[C@]2(O)C(=O)CO [Prednisolone, reference compound] | – | – | – | – | – | – | – | – | – | – | – | – | – | Lesion score ([2]; rectally administered, 1 mg/kg, control 5% HPMC 5.3): 4.8 |
| O=C(O)c1cc(/N=N/c2ccc(S(=O)(=O)Nc3ccccn3)cc2)ccc1O [Sulfasalazine, reference compound] | – | – | – | – | – | – | – | – | – | – | – | – | – | Lesion score ([2]; orally administered, 100 mg/kg p.o, control 5% HPMC 9.0): 7.7 |
| O=C(NC(Cc1cc(=O)[nH]c2ccccc12)C(=O)O)c1ccc(Cl)cc1 (centres unmarked) [Rebamipide, 2-(4-chlorobenzoylamino)-3-(2-(1H)-quinolinone-4-yl)propanonic acid, reference compound] | – | – | – | – | – | – | – | – | – | – | – | – | 44.2 | – |

Now from value to molecule, other results behind:

| Weight changes according to the time lapse (%) ([1]; 0 h) | Weight changes according to the time lapse (%) ([1]; 2 h) | Weight changes according to the time lapse (%) ([1]; 4 h) | Weight changes according to the time lapse (%) ([1]; 6 h) | Weight changes according to the time lapse (%) ([1]; 1 day) | Weight changes according to the time lapse (%) ([1]; 3 day) | Weight changes according to the time lapse (%) ([1]; 6 day) | Weight changes according to the time lapse (%) ([3]; 0 day) | Weight changes according to the time lapse (%) ([3]; 1 day) | Weight changes according to the time lapse (%) ([3]; 2 day) | Weight changes according to the time lapse (%) ([3]; 3 day) | Weight changes according to the time lapse (%) ([3]; 6 day) | Compound | ED50 [4] [mg/kg] | other results |
| --- | --- | --- | --- | --- | --- | --- | --- | --- | --- | --- | --- | --- | --- | --- |
| – | – | – | – | – | – | – | 0 | −4.1 | −6.5% | −6.5% | −6.5% | COc1ccc(-c2cc(=O)c3c(OC)cc(OCC(=O)O)cc3o2)cc1OC [Ethanol solvate, 7-carboxymethyloxy-3′,4′,5-trimethoxy flavone.ethanol solvate] | – | weight change / conversion (in words) [3]: converted into monohydrate; weight decrease (average) ([3]; after one day): 4.1%; weight decrease (average) ([3]; after two days, constant thereafter): 6.5% |
| 0 | −0.2% | −0.3% | +0.2% | −0.3% | +0.3% | +0.3% | 0 | −0.3 | +0.3% | +0.3% | +0.3% | COc1ccc(-c2cc(=O)c3c(OC)cc(OCC(=O)O)cc3o2)cc1OC [Monohydrate, 7-carboxymethyloxy-3′,4′,5-trimethoxy flavone.monohydrate] | 0.33 | protecting effect on the damage of gastric mucosa relative to Rebamipide ([4]; ratio of ED50): at least 100 times; weight change / hygroscopicity (in words) [1, 5]: did not show any weight change; weight change / hygroscopicity (in words) ([1]; listed as monohydrate): no weight change; effect on the TNBS-induced inflammatory colitis model (in words) ([2]; oral and rectal administration): showed inhibiting effect; Lesion score ([2]; orally administered, 0.3 mg/kg p.o, control 5% HPMC 9.0): 7.5; Lesion score ([2]; orally administered, 3 mg/kg p.o, control 5% HPMC 9.0): 5.9; Lesion score ([2]; rectally administered, 0.3 mg/kg, control 5% HPMC 5.3): 2.0; weight change / conversion (in words) [3, 5]: did not show any weight change |
